Experiments:
[1] = Metabolic stability in human liver microsomes; assay type: in vitro ADME; settings: LM Clint (intrinsic clearance); 1 μM test compound, 0.5 mg protein/mL microsome, 37° C., up to 60 min
Description: 2.1. Test Compound and Control Working Solution Preparation: Working solution: 5 µL of compound and control stock solution (10 mM in dimethyl sulfoxide (DMSO)) were diluted with 495 μL of acetonitrile (ACN) (intermediate solution concentration: 100 μM, 99% ACN).
2.2.1. […] 2.2.2. Preparation Procedure: The appropriate amount of NADPH powder were weighed and diluted into a 10 mM MgCl2 solution (working solution concentration: 10 unit/mL; final concentration in reaction system: 1 unit/mL).
2.3.2. Preparation Procedure: The appropriate concentrations of microsome working solutions were prepared in 100 mM potassium phosphate buffer. 2.4. Stop Solution Preparation: Cold (4° C.) acetonitrile (ACN) containing 200 ng/mL tolbutamide and 200 ng/mL labetalol as internal standards (IS) were used as the stop solution.
2.5.1. Pre-warm empty ‘Incubation’ plates T60 and NCF60 for 10 min minutes. 2.5.2. Liver microsomes were diluted to 0.56 mg/mL in 100 mM phosphate buffer. 2.5.3. 445 uL microsome working solutions (0.56 mg/mL) were transferred into pre-warmed ‘Incubation’ plates T60 and NCF60. Then ‘Incubation’ plates T60 and NCF60 were pre-incubated for 10 min at 37° C. with constant shaking. 54 μL liver microsomes were transferred to blank plate, then 6 μL NAPDH cofactor were added to the blank plate, and then 180 μL quenching solution can be added to blank plate. 2.5.4 5 μL compound working solution (100 μM) were added into ‘incubation’ plates (T60 and NCF60) containing microsomes and mix 3 times thoroughly. 2.5.5. For the NCF60 plate, 50 uL of buffer were added and were mixed 3 times thoroughly. Start timing; plate was incubated at 37° C. for 60 min while shaking. 2.5.6. In ‘Quenching’ plate TO, 180 μL quenching solution were added and 6 μL NAPDH cofactor were added. Ensured the plate was chilled to prevent evaporation. 2.5.7. For the T60 plate, were mixed 3 times thoroughly, and immediately removed 54 μL mixture for the 0-min time point to ‘Quenching’ plate. Then 44 μL NAPDH cofactor were added to incubation plate (T60). Start timing; plate were incubated at 37° C. for 60 min while shaking.
2.5.8. At 5, 10, 20, 30, and 60 min, 180 μL quenching solution were added to ‘Quenching’ plates, mix once, and were serially transferred 60 μL sample from T60 plate per time point to ‘Quenching’ plates.
2.5.9. For NCF60: were mixed once, and 60 μL sample were transferred from the NCF60 incubation to ‘Quenching’ plate containing quenching solution at the 60-min time point.
2.5.10. All sampling plates were shaken for 10 min, then centrifuged at 4000 rpm for 20 minutes at 4° C. 2.5.11. 80 μL supernatant were transferred into 240 μL HPLC water, and were mixed by plate shaker for 10 min. 2.5.12. Each bioanalysis plate were sealed and shaken for 10 minutes prior to LC-MS/MS analysis.
3.1. The equation of first order kinetics were used to calculate T1/2 and Intrinsic clearance (CLint mic) in (μL/min/mg).
Equation of first order kinetic.

[2] = target: T1, TNIK kinase [amino acid sequence (1-367), Invitrogen] (Homo sapiens, UniProt Q9UKE5); assay: TNIK kinase inhibition assay (Z-lyte FRET-peptide); assay type: biochemical; settings: 0.625 nM TNIK kinase, 2 μM Ser/Thr 7 peptide, 64 μM ATP, one hour at room temperature
T1 construct: purchased Invitrogen
Description: Z-lyte assay kit was purchased from Invitrogen. A site-specific protease recognizes and cleaves non-phosphorylated FRET-peptides. Phosphorylation of FRET-peptides suppresses cleavage by protease and will maintain FRET from donor to acceptor.
5 μl of Development Reagent A solution was then added to cleave non-phosphorylated peptide with a dilution 1:65000 in Development Buffer B. The assay plate was incubated at room temperature for another one hour and then read in the Envision plate reader (PerkinElmer).

T1 sequence (Q9UKE5 1-367): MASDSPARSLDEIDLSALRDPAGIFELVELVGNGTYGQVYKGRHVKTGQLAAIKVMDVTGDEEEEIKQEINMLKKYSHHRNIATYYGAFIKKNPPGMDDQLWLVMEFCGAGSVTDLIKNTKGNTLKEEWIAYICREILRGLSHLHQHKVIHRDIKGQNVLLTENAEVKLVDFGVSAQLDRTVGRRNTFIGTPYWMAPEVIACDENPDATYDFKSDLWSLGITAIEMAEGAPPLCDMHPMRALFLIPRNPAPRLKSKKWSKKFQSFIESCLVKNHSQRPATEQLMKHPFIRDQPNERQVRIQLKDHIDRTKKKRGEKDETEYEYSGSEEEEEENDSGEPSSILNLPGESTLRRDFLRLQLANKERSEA

SMILES	Human Liver Microsome (μM/min/mg) [1]	IC50 [2]
O=C(Nc1ccc(N2CCOCC2)cn1)c1c[nH]c(-c2c(-c3ccc(F)cc3)ncn2C2COC2)n1 [Compound 72, 5′-(4-fluorophenyl)-N-(5-morpholinopyridin-2-yl)-3′-(oxetan-3-yl)-1H,3′H-[2,4′-biimidazole]-4-carboxamide]	++ (10-100 μM/min/mg as ++)	–
O=C(NC1CCOCC1)c1csc(-c2c(-c3ccc(F)cc3)ncn2C2CC(F)(F)C2)n1 [Compound 77, 2-(1-(3,3-difluorocyclobutyl)-4-(4-fluorophenyl)-1H-imidazol-5-yl)-N-(tetrahydro-2H-pyran-4-yl)thiazole-4-carboxamide]	–	> 150 nM
O=C(Nc1ccc(C2COC2)cn1)c1csc(-c2c(-c3ccc(F)cc3)ncn2C2COC2)n1 [Compound 78, 2-(4-(4-fluorophenyl)-1-(oxetan-3-yl)-1H-imidazol-5-yl)-N-(5-(oxetan-3-yl)pyridin-2-yl)thiazole-4-carboxamide]	–	1 to 12 nM
O=C(Nc1ccc(N2CCC2)cn1)c1coc(-c2c(-c3ccc(F)cc3)ncn2C2COC2)n1 [Compound 79, N-(5-(azetidin-1-yl)pyridin-2-yl)-2-(4-(4-fluorophenyl)-1-(oxetan-3-yl)-1H-imidazol-5-yl)oxazole-4-carboxamide]	–	12 to 150 nM
O=C(Nc1ccc(C2COC2)cc1F)c1coc(-c2c(-c3ccc(F)cc3)ncn2C2COC2)n1 [Compound 80, N-(2-fluoro-4-(oxetan-3-yl)phenyl)-2-(4-(4-fluorophenyl)-1-(oxetan-3-yl)-1H-imidazol-5-yl)oxazole-4-carboxamide]	–	12 to 150 nM
O=C(Nc1ccc(C2COC2)cn1)c1coc(-c2c(-c3ccc(F)cc3)ncn2C2COC2)n1 [Compound 82, 2-(4-(4-fluorophenyl)-1-(oxetan-3-yl)-1H-imidazol-5-yl)-N-(5-(oxetan-3-yl)pyridin-2-yl)oxazole-4-carboxamide]	–	12 to 150 nM
CC(C)c1noc(-c2ccc(F)cc2)c1-c1nc(C(=O)Nc2ccc(C3CN(C)C3)cc2F)cs1 [Compound 87, N-(2-fluoro-4-(1-methylazetidin-3-yl)phenyl)-2-(5-(4-fluorophenyl)-3-isopropylisoxazol-4-yl)thiazole-4-carboxamide]	–	1 to 12 nM
CC(C)c1noc(-c2ccc(F)cc2)c1-c1nc(C(=O)Nc2ccc(C3CN(C)C3)cn2)cs1 [Compound 89, 2-(5-(4-fluorophenyl)-3-isopropylisoxazol-4-yl)-N-(5-(1-methylazetidin-3-yl)pyridin-2-yl)thiazole-4-carboxamide]	–	12 to 150 nM
CC(C)n1cnc(-c2ccc(F)cc2)c1-c1nc(C(=O)Nc2ccc(C3CN(C)C3)cc2F)co1 [Compound 101, N-(2-fluoro-4-(1-methylazetidin-3-yl)phenyl)-2-(4-(4-fluorophenyl)-1-isopropyl-1H-imidazol-5-yl)oxazole-4-carboxamide]	–	1 to 12 nM
CN1C2CC1CN(c1ccc(NC(=O)c3coc(-c4c(-c5ccc(F)cc5)ncn4C4CC(F)(F)C4)n3)c(F)c1)C2 [Compound 103, 2-(1-(3,3-difluorocyclobutyl)-4-(4-fluorophenyl)-1H-imidazol-5-yl)-N-(2-fluoro-4-(6-methyl-3,6-diazabicyclo[3.1.1]heptan-3-yl)phenyl)oxazole-4-carboxamide]	–	1 to 12 nM
CC(C)c1onc(-c2ccc(F)cc2)c1-c1nc(C(=O)Nc2ccc(N3CC4CC(C3)N4C)cn2)co1 [Compound 104, 2-(3-(4-fluorophenyl)-5-isopropylisoxazol-4-yl)-N-(5-(6-methyl-3,6-diazabicyclo[3.1.1]heptan-3-yl)pyridin-2-yl)oxazole-4-carboxamide]	–	12 to 150 nM
CC(C)c1onc(-c2ccc(F)cc2)c1-c1nc(C(=O)Nc2ccc(N3CC4CC(C3)N4C)cc2F)co1 [Compound 105, N-(2-fluoro-4-(6-methyl-3,6-diazabicyclo[3.1.1]heptan-3-yl)phenyl)-2-(3-(4-fluorophenyl)-5-isopropylisoxazol-4-yl)oxazole-4-carboxamide]	–	12 to 150 nM
CC(C)c1onc(-c2ccc(F)cc2)c1-c1nc(C(=O)Nc2ccc(C3CN(C)C3)cc2F)co1 [Compound 106, N-(2-fluoro-4-(1-methylazetidin-3-yl)phenyl)-2-(3-(4-fluorophenyl)-5-isopropylisoxazol-4-yl)oxazole-4-carboxamide]	–	12 to 150 nM
CC(C)c1onc(-c2ccc(F)cc2)c1-c1nc(C(=O)Nc2ccc(C3CN(C)C3)cn2)co1 [Compound 107, 2-(3-(4-fluorophenyl)-5-isopropylisoxazol-4-yl)-N-(5-(1-methylazetidin-3-yl)pyridin-2-yl)oxazole-4-carboxamide]	–	12 to 150 nM
[2H]C([2H])([2H])N1CC(c2ccc(NC(=O)c3csc(-c4c(-c5ccc(F)cc5)ncn4C([2H])(C)C)n3)nc2)C1 [Compound 110, 2-[3-(1-deuterio-1-methyl-ethyl)-5-(4-fluorophenyl)imidazol-4-yl]-N-[5-[1-(trideuteriomethyl)azetidin-3-yl]-2-pyridyl]thiazole-4-carboxamide]	–	1 to 12 nM
[2H]C([2H])([2H])N1CC(c2ccc(NC(=O)c3coc(-c4c(-c5ccc(F)cc5)ncn4C([2H])(C)C)n3)nc2)C1 [Compound 111]	–	12 to 150 nM
[2H]C([2H])([2H])N1CC(c2ccc(NC(=O)c3coc(-c4c(-c5ccc(F)cc5)ncn4C(C)C)n3)nc2)C1 [Compound 112, 2-[5-(4-fluorophenyl)-3-isopropyl-imidazol-4-yl]-N-[5-[1 (trideuteriomethyl)azetidin-3-yl]-2-pyridyl]oxazole-4-carboxamide]	–	12 to 150 nM
[2H]C([2H])([2H])N1CC(c2ccc(NC(=O)c3c[nH]c(-c4c(-c5ccc(F)cc5)ncn4C(C)C)n3)nc2)C1 [Compound 113]	–	12 to 150 nM
[2H]C([2H])([2H])N1CC(c2ccc(NC(=O)c3csc(-c4c(C(C)C)cnn4-c4ccc(F)cc4)n3)nc2)C1 [Compound 116, 2-(1-(4-fluorophenyl)-4-isopropyl-1H-pyrazol-5-yl)-N-(5-(1-(trideuteriomethyl)azetidin-3-yl)pyridin-2-yl)thiazole-4-carboxamide]	–	1 to 12 nM
[2H]C([2H])([2H])N1CC(c2ccc(NC(=O)c3c[nH]c(-c4c(-c5ccc(F)cc5)ncn4C([2H])(C)C)n3)nc2)C1 [Compound 118]	–	12 to 150 nM
[2H]C([2H])([2H])N1CC(c2ccc(NC(=O)c3c[nH]c(-c4c(-c5ccc(F)cc5)ncn4C4CCC4)n3)nc2)C1 [Compound 119, 2-[3-cyclobutyl-5-(4-fluorophenyl)imidazol-4-yl]-N-[5-[1-(trideuteriomethyl)azetidin-3-yl]-2-pyridyl]-1H-imidazole-4-carboxamide]	–	12 to 150 nM
[2H]C([2H])([2H])N1CC(c2ccc(NC(=O)c3c[nH]c(-c4c(-c5ccc(F)cc5)ncn4C4CCC4)n3)c(F)c2)C1 [Compound 120, 2-[3-cyclobutyl-5-(4-fluorophenyl)imidazol-4-yl]-N-[2-fluoro-4-[1-(trideuteriomethyl)azetidin-3-yl]phenyl]-1H-imidazole-4-carboxamide]	–	1 to 12 nM
[2H]C([2H])([2H])N1CC(c2ccc(NC(=O)c3nc(-c4c(-c5ccc(F)cc5)ncn4C(C)C)cs3)nc2)C1 [Compound 130, 4-[5-(4-fluorophenyl)-3-isopropyl-imidazol-4-yl]-N-[5-[1-(trideuteriomethyl)azetidin-3-yl]-2-pyridyl]thiazole-2-carboxamide]	++ (10-100 μM/min/mg as ++)	–
[2H]C(C)(C)n1cnc(-c2ccc(F)cc2)c1-c1nc(C(=O)Nc2ccc(N3CCN(CC)CC3)cc2)c[nH]1 [Compound 135, 2-[3-(1-deuterio-1-methyl-ethyl)-5-(4-fluorophenyl)imidazol-4-yl]-N-[4-(4-ethylpiperazin-1-yl)phenyl]-1H-imidazole-4-carboxamide]	–	12 to 150 nM

— US20240336611A1 (Insilico Medicine IP Limited, priority 2021, published 2024)
